Results: patent KR20230001519A, “근위 단백질 변형 반응을 이용한 신규한 약물 결합 단백질의 동정” (서울대학교산학협력단, priority 2021, dated 2023)
Counter-ions that a name gives are not always drawn.

How the values were obtained:
[1] = tested on: HaloTag protein (할로택 단백질); test: In vitro competition assay of HaloTag ligand (dansyl-HTL, in-gel fluorescence); type: binding; conditions: competition with dansyl-HTL; purified HaloTag 10 μM, compound 10 μM; data not shown
[2] = tested on: Ba/F3 cells (Ba/F3 세포); test: CCK-8 growth inhibition, Ba/F3; type: cell-based, mouse; conditions: Ba/F3, 72 h
[3] = tested on: K562 cells (K562 세포); test: CCK-8 growth inhibition, K562; type: cell-based, human; conditions: K562, 72 h
[4] = molecular target: T1, KDABL1 (Homo sapiens, UniProt P00519); test: In cellulo translocation assay of KDABL1 to mitochondrial HT-TurbID-MoA (confocal); type: cell-based; parameters: KDABL1, 아미노산 239-512, Uniprot ID: P00519; expressed in transfected cells; host or cells: U2OS (translocation, A4); conditions: U2OS, 500 nM, 3 h
T1 sequence (P00519 239-512): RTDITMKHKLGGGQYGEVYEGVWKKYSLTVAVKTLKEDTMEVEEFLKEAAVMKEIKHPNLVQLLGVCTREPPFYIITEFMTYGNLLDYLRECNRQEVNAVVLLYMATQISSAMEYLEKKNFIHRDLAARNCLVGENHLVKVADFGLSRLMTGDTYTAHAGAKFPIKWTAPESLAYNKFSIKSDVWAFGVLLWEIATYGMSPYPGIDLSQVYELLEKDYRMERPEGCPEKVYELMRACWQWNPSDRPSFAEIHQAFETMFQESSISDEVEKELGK

[5] = molecular target: T2, SMARCA2 (Homo sapiens, UniProt P51531); test: PROCID mass analysis, SMARCA2; type: cell-based
T2 construct: endogenous in cells; host or cells: K562 stably expressing HT-V5-TurbID

[6] = molecular target: T1, KDABL1; test: Proximity biotinylation of HA-KDABL1 by HT-TurbID (PL-IP, western blot); type: cell-based; parameters: KDABL1, 아미노산 239-512, Uniprot ID: P00519; expressed in transfected cells; host or cells: HEK293T (PL-IP, A6); conditions: HEK293T, 500 nM, 3 h; biotin 100 μM, 30 min; SA-HRP western blot
[7] = molecular target: T3, TOM20-KDABL1 (Homo sapiens, UniProt P00519); test: In cellulo mitochondrial translocation of HT-TurbID to TOM20-KDABL1; type: cell-based; conditions: data not shown
T3 construct: KDABL1, 아미노산 239-512, Uniprot ID: P00519; expressed in transfected cells
T3 sequence (P00519 239-512): T1 sequence (P00519 239-512)

[8] = molecular target: T4, CSK (Homo sapiens, UniProt P41240); test: In cellulo translocation assay, CSK-EGFP to HT-TurbID-MoA; type: cell-based; parameters: host or cells: U2OS (translocation, A17; reproduced in COS-7)
[9] = molecular target: T4, CSK; test: PROCID mass analysis, CSK; type: cell-based; parameters: endogenous in cells; host or cells: K562 stably expressing HT-V5-TurbID
[10] = molecular target: T5, BTK (Homo sapiens, UniProt Q06187); test: PROCID mass analysis, BTK; type: cell-based
T5 construct: endogenous in cells; host or cells: K562 stably expressing HT-V5-TurbID

[11] = molecular target: T6, BTK (Mus musculus, UniProt P35991); test: PL-IP biotinylation of BTK-mCherry; type: cell-based
[12] = tested on: HT-TurbID stably expressing K562 cells (HT-TurbID를 안정적으로 발현하는 K562 세포주); test: Biotinylation in K562 cells stably expressing HT-TurbID (streptavidin-HRP western blot); type: cell-based, human
[13] = molecular target: T6, BTK; test: In cellulo translocation assay, BTK-mCherry to HT-TurbID-MoA; type: cell-based; parameters: host or cells: U2OS (translocation, A16; reproduced in COS-7)
[14] = tested on: dasatinib binding proteins of K562 cells (K562 세포의 다사티닙 결합 단백질); test: PROCID mass analysis of biotinylated proteins (dasatinib interactors, group I); type: cell-based, Homo sapiens; conditions: K562, 500 nM, 3 h
[15] = tested on: ABL1; test: PROCID mass analysis, ABL1; type: cell-based, Homo sapiens; conditions: ABL1, K562
[16] = molecular target: T4, CSK; test: PL-IP biotinylation of CSK-EGFP; type: cell-based
[17] = molecular target: T7, ABL2 (Homo sapiens, UniProt P42684); test: PROCID mass analysis, ABL2; type: cell-based; conditions: ABL2, K562
T7 construct: endogenous in cells; host or cells: K562 stably expressing HT-V5-TurbID

[18] = molecular target: T8, RIOK1 (Homo sapiens, UniProt Q9BRS2); test: PROCID mass analysis, RIOK1; type: cell-based; conditions: RIOK1, K562
T8 construct: endogenous in cells; host or cells: K562 stably expressing HT-V5-TurbID
T8 sequence (Q9BRS2 1-568): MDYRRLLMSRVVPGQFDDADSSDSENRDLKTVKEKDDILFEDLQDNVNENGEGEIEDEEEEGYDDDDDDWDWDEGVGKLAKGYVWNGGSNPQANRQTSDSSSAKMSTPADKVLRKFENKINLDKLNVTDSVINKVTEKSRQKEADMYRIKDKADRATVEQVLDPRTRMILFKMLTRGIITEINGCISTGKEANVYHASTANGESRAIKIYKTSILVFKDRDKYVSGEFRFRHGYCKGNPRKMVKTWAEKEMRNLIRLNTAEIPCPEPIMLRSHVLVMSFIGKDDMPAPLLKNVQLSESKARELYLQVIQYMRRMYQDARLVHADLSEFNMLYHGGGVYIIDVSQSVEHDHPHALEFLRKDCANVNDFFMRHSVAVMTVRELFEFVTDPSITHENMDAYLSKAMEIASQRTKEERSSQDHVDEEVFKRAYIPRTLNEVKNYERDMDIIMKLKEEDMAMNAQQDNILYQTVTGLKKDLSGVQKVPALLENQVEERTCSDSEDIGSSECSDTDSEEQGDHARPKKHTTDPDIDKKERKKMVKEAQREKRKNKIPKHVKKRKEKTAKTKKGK

[19] = molecular target: T9, TOM20-HA-KDABL1 (Homo sapiens, UniProt P00519); test: Proximity biotinylation of TOM20-HA-KDABL1 by HT-TurbID; type: cell-based; conditions: HT-TurbID in cytosol; data not shown
T9 construct: KDABL1, 아미노산 239-512, Uniprot ID: P00519; expressed in transfected cells
T9 sequence (P00519 239-512): T1 sequence (P00519 239-512)

[20] = molecular target: T4, CSK; parameters: host or cells: U2OS (translocation, A17; reproduced in COS-7); HEK293T (PL-IP, A19); conditions: in vitro characterization; cited from earlier work
[21] = molecular target: T10, ABDSMARCA2 (Homo sapiens, UniProt P51531); test: Translocation and PL-IP assays with ATP binding domain of SMARCA2; type: cell-based; conditions: concluded from translocation of ABDSMARCA2 to mitochondria-targeted HT-TurbID
T10 construct: ABD SMARCA2(736-901aa 헬리카제-ATP 결합 도메인)-HA; expressed in transfected cells; host or cells: HEK293-AD

[22] = HEK293T, 3 h, SA-HRP western blot

T6 sequence (P35991 whole entry): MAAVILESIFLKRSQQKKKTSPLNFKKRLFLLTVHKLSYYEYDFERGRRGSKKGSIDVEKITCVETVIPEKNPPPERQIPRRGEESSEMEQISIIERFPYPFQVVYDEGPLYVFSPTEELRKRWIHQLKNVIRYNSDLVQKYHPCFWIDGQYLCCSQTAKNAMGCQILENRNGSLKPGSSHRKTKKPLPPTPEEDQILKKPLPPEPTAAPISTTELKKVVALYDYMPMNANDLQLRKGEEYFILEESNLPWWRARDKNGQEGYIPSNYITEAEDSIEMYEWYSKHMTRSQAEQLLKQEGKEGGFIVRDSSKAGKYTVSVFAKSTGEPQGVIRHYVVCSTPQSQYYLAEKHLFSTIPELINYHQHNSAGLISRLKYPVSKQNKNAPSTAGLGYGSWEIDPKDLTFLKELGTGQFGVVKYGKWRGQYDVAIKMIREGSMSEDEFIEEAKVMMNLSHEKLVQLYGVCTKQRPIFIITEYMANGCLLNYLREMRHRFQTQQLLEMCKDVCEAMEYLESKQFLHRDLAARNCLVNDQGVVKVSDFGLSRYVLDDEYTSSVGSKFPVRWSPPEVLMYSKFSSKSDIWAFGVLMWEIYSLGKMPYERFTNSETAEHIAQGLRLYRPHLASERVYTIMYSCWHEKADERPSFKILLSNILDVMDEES
T4 sequence (P41240 whole entry): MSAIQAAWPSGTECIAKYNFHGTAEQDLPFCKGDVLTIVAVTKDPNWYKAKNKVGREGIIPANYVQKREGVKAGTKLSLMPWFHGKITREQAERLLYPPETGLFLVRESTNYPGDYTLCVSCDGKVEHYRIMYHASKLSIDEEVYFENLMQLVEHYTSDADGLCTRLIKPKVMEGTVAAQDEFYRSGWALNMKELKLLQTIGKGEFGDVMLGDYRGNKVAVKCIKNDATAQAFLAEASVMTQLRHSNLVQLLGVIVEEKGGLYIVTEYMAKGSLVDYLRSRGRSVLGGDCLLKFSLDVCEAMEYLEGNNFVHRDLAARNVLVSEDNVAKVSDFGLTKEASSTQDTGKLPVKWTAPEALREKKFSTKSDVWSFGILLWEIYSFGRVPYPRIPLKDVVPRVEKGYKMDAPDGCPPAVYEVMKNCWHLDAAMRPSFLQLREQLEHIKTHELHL
T2 sequence (P51531 whole entry): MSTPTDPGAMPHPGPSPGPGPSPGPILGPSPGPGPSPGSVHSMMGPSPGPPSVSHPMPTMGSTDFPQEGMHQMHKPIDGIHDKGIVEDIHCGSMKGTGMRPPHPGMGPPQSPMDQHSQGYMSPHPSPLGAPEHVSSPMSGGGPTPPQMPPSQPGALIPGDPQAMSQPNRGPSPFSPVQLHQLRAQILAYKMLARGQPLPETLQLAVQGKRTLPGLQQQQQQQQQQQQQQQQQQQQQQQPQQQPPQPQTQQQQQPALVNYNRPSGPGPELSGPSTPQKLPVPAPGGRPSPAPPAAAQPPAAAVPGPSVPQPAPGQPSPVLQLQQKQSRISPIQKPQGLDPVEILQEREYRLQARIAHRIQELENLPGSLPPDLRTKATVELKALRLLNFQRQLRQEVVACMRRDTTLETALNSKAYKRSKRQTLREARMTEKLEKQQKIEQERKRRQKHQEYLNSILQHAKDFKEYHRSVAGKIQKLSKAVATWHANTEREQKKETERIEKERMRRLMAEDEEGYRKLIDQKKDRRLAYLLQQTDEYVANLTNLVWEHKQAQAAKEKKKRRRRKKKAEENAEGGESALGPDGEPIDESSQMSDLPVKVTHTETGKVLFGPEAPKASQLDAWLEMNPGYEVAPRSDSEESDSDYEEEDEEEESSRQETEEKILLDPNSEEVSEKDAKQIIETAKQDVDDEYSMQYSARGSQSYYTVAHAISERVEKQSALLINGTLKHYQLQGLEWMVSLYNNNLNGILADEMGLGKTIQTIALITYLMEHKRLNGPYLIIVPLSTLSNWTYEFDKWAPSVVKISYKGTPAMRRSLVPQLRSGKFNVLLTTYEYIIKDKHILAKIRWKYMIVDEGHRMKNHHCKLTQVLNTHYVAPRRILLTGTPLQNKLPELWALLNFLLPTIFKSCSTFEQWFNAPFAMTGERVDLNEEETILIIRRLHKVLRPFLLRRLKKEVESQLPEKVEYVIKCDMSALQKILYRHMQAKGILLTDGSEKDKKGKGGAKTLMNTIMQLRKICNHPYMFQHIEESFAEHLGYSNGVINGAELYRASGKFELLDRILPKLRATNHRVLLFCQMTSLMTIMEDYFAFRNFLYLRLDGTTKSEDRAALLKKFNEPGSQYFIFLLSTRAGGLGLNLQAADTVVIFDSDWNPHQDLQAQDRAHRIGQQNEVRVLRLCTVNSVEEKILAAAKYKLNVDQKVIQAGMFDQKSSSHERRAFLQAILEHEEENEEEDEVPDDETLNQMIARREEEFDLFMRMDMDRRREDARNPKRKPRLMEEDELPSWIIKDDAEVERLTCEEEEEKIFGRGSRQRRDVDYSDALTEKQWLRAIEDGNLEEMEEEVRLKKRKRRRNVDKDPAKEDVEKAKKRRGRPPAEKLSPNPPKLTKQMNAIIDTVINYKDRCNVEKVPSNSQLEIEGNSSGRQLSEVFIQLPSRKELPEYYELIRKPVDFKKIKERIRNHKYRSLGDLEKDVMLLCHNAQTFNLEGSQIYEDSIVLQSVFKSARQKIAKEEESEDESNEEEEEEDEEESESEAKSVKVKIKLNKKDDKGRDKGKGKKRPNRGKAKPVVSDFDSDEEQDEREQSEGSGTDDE
T5 sequence (Q06187 whole entry): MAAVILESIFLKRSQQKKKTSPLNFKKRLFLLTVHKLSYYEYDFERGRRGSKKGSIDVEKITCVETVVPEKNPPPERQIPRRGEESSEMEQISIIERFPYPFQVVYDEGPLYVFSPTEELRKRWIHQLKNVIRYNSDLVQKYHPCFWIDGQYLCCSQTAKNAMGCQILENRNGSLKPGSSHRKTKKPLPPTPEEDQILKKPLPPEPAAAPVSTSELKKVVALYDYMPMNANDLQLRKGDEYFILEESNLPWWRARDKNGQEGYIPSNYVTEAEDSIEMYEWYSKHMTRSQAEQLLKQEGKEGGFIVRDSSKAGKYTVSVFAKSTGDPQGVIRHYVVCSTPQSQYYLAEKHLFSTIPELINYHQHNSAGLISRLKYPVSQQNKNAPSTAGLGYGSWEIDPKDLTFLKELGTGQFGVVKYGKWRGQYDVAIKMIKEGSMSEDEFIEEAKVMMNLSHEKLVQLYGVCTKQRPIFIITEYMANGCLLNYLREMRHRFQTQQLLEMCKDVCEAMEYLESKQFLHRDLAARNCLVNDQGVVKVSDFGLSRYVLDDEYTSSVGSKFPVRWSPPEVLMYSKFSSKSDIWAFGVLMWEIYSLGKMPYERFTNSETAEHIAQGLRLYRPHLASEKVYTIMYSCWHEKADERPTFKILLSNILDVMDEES
T10 sequence (P51531 736-901): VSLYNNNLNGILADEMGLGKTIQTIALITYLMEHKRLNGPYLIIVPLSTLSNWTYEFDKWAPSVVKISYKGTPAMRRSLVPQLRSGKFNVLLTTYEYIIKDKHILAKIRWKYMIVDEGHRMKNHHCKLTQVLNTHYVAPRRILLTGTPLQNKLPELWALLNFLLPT
T7 sequence (P42684 whole entry): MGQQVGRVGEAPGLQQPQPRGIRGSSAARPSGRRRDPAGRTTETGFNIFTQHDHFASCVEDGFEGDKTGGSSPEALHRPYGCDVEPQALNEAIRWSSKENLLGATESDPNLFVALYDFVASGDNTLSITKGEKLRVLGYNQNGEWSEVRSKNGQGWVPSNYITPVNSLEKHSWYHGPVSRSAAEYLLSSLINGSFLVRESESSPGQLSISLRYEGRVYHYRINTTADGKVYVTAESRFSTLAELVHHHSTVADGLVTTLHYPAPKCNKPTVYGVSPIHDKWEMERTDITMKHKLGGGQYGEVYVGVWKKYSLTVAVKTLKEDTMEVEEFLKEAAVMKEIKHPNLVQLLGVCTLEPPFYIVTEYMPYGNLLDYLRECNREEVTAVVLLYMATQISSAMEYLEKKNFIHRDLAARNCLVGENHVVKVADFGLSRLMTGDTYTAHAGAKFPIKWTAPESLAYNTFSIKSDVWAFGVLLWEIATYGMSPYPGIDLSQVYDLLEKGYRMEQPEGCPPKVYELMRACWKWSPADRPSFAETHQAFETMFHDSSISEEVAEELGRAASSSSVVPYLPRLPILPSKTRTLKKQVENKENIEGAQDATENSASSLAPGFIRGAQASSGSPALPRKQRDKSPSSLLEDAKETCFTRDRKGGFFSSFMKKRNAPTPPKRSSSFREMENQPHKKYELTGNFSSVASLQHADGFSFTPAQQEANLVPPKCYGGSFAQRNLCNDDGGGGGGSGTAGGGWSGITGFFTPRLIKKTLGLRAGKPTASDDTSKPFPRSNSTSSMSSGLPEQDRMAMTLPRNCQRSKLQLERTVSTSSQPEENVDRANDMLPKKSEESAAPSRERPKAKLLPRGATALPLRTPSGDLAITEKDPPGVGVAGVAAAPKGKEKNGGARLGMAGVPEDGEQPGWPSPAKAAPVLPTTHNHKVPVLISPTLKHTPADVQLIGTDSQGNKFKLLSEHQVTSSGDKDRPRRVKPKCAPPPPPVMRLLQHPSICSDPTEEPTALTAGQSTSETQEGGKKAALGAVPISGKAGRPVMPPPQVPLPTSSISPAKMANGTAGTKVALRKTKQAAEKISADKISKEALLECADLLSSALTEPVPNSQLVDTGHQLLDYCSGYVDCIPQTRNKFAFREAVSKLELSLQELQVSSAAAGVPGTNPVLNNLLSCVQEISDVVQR

Q: What does the source list for `Cc1nc(Nc2ncc(C(=O)Nc3c(C)cccc3Cl)s2)cc(N2CCN(CCOC(=O)NCCOCCOCCOCCCCCCCl)CC2)n1` [DA3, 2-(4-(6-((5-((2-chloro-6-methylphenyl)carbamoyl)thiazol-2-yl)amino)-2-methylpyrimidin-4-yl)piperazin-1-yl)ethyl(2-(2-(2-((6-chlorohexyl)oxy)ethoxy)ethoxy)ethyl)carbamate trifluoroacetate salt]?
A: binding to HaloTag [1]: 할로택에 잘 결합한다; GI50 [2]: 서브마이크로몰 범위; GI50 [3]: 서브마이크로몰 범위

Q: Which “binding to HaloTag” value [1] does the source give for `Cc1nc(Nc2ncc(C(=O)Nc3c(C)cccc3Cl)s2)cc(N2CCN(CCOC(=O)NCCOCCOCCOCCOCCOCCCCCCCl)CC2)n1` [DA5, 2-(4-(6-((5-((2-chloro-6-methylphenyl)carbamoyl)thiazol-2-yl)amino)-2-methylpyrimidin-4-yl)piperazin-1-yl)ethyl(21-chloro-3,6,9,12,15-pentaoxahenicosyl)carbamate trifluoroacetate salt] here?
A: 할로택에 잘 결합한다

Q: And the “translocation of KDABL1 from cytosol to mitochondria” value [4]?
A: KDABL1의 효율적인 전위

Q: What about the “biotinylation by HT-TurbID in DA5 treated sample” value (“biotinylation by HT-TurbID” for short) ([5]; SMARCA2, K562) of the same compound?
A: 고도로 바이오틴화

Q: What about the “fold change (FC) of biotinylation” value ([5]; SMARCA2, K562, DA5 treated vs control, highest fold change) of the same compound?
A: 5.14

Q: And the “biotinylation of KDABL1 by HT-TurbID” value [6]?
A: DA5로 처리되었을 때만 KDABL1이 HT-TurbID에 의해 바이오틴화 된다

Q: What about the “mitochondrial translocation of HT-TurbID to TOM20-KDABL1” value [7] of the same compound?
A: 미토콘드리아 전위가 확인되었다

Q: What about the DA5-dependent translocation ([8]; CSK, COS-7, data not shown) of the same compound?
A: 그대로 재현되었다

Q: And the “Pearson's correlation coefficient” value ([8]; CSK, U2OS, after DA5 treatment)?
A: 급격히 증가

Q: What about the “translocation from cytosol to mitochondria” value ([8]; CSK-EGFP, U2OS, 500 nM, 3 h) of the same compound?
A: 세포질에서 미토콘드리아로 전위되는 것이 확인되었다

Q: And the “biotinylation by HT-TurbID” value ([9]; K562)?
A: 고도로 바이오틴화

Q: What about the biotinylated lysine residues ([9]; MS analysis) of the same compound?
A: 다수의 라이신 잔기가 DA5 처리된 HT-TurbID에 의해 바이오틴화 된다

Q: What about the “biotinylation by HT-TurbID” value ([10]; K562) of the same compound?
A: 고도로 바이오틴화

Q: And the biotinylated lysine residues ([10]; MS analysis)?
A: 다수의 라이신 잔기가 DA5 처리된 HT-TurbID에 의해 바이오틴화 된다

Q: What about the DA5-dependent biotinylation ([11]; BTK, HT-TurbID-MoA instead of HT-TurbID, data not shown) of the same compound?
A: 그대로 재현되었다

Q: What about the “co-purification of HT-TurbID with bait protein” value ([11]; BTK-mCherry, anti-HA pulldown) of the same compound?
A: DA5 처리 샘플에서만 미끼 단백질과 공동 정제되었다

Q: What about the “biotinylation of enriched BTK-mCherry” value [11, 22] of the same compound?
A: DA5 처리 하에서만 바이오틴화되었다

Q: And the biotinylation reaction [12]?
A: 강력한 바이오틴화 반응

Q: What about the “streptavidin-HRP western blot pattern compared with DA and DMSO” value [12] of the same compound?
A: 미묘하게 차이가 있었다

Q: What about the DA5-dependent translocation ([13]; BTK, COS-7, data not shown) of the same compound?
A: 그대로 재현되었다

Q: And the “Pearson's correlation coefficient” value ([13]; BTK, U2OS, after DA5 treatment)?
A: 급격히 증가

Q: What about the “translocation from cytosol to mitochondria” value ([13]; BTK-mCherry, U2OS, 500 nM, 3 h) of the same compound?
A: 세포질에서 미토콘드리아로 전위되는 것이 확인되었다

Q: And the “number of proteins reproducibly biotinylated only on DA5 treatment” value ([14]; biotin 50 μM 30 min, P < 0.05, Log2(FC) > 1.2)?
A: 33

Q: And the “number of proteins selected as dasatinib interactors (group I)” value ([14]; includes SMARCA2)?
A: 34

Q: And the “biotinylation by HT-TurbID” value [15]?
A: 고도로 바이오틴화

Q: What about the DA5-dependent biotinylation ([16]; CSK, HT-TurbID-MoA instead of HT-TurbID, data not shown) of the same compound?
A: 그대로 재현되었다

Q: What about the “co-purification of HT-TurbID with bait protein” value ([16]; CSK-EGFP, anti-HA pulldown) of the same compound?
A: DA5 처리 샘플에서만 미끼 단백질과 공동 정제되었다

Q: And the “biotinylation of enriched CSK-EGFP” value [16, 22]?
A: DA5 처리 하에서만 바이오틴화되었다

Q: What about the “biotinylation by HT-TurbID” value [17] of the same compound?
A: 고도로 바이오틴화

Q: What about the GI50 [2] of the same compound?
A: 서브마이크로몰 범위

Q: What about the “biotinylation by HT-TurbID” value [18] of the same compound?
A: 고도로 바이오틴화

Q: What about the “biotinylation of TOM20-HA-KDABL1 by HT-TurbID” value [19] of the same compound?
A: 재현 가능한 DA5 의존성 바이오틴화를 관찰

Q: What about the GI50 [3] of the same compound?
A: 서브마이크로몰 범위

Q: Which biotinylation reaction [12] does the source give for `Cc1nc(Nc2ncc(C(=O)Nc3c(C)cccc3Cl)s2)cc(N2CCN(CCO)CC2)n1` [다사티닙] here?
A: 강력한 바이오틴화 반응

Q: And the “binding affinity for dasatinib” value [20]?
A: 다사티닙에 대한 결합 친화력이 있음

Q: And the “physical binding affinity of ABDSMARCA2 for dasatinib” value [21]?
A: 물리적 결합 친화성을 가지고 있으며
